This is an account of results in US10377755B2, “BCL-2 inhibitors” (Newave Pharmaceutical Inc., priority 2016, dated 2019).

One data set has as its target Mcl-1 (Homo sapiens (Human), UniProt Q07820). The following applies: cited from earlier work.
Data set [1] relates to CLL. The following applies: Human Phase I and II; cited from earlier work.
For data set [2], the system named is CLL. The following applies: average; read-out: average EC50, apoptosis in CLL; cited from earlier work.
In the next data set the test system is RS4;11 xenografts. The following applies: single dose of 100 mg/kg; cited from earlier work.
In a further data set the test system is RS4;11 cells. Particulars: cited from earlier work.
In another data set the test system is H146. Briefly: In vitro anti-proliferation assay (ATPlite) in BCL-XL-dependent small cell lung cancer cell line H146. It counts as cell-based. The following applies: Homo sapiens, NCI-H146; about 72 hours, 5% FBS. The method, then:
Cell antiproliferation is assayed by PerkinElmer ATPlite™ Luminescence Assay System. Briefly, the various test cancer cell lines are plated at a density of about 1×10^4 cells per well in Costar 96-well plates, and are incubated with different concentrations of compounds for about 72 hours in medium supplemented with 5% FBS. One lyophilized substrate solution vial is then reconstituted by adding 5 mL of substrate buffer solution, and is agitated gently until the solution is homogeneous. About 50 μL of mammalian cell lysis solution is added to 100 μL of cell suspension per well of a microplate, and the plate is shaken for about five minutes in an orbital shaker at ˜700 rpm. This procedure is used to lyse the cells and to stabilize the ATP. Next, 50 μL substrate solution is added to the wells and microplate is shaken for five minutes in an orbital shaker at ˜700 rpm. Finally, the luminescence is measured by a PerkinElmer TopCount® Microplate Scintillation Counter. Such assays, carried out with a range of doses of test compounds, allow the determination of the cellular anti-antiproliferative IC50 of the compounds of the present invention.
(In general: In ATP-based viability assays light output follows the ATP content of the culture.)

Sequence of Mcl-1 (Q07820 whole entry): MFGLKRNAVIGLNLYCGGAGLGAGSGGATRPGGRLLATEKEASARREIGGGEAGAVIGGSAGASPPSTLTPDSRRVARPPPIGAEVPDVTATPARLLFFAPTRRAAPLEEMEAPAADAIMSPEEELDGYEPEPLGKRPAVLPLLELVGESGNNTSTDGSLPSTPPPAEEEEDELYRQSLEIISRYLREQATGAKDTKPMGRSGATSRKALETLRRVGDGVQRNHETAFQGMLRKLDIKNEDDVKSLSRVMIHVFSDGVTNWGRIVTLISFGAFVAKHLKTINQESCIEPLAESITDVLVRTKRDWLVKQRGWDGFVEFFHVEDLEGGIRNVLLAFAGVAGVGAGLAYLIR

By EC50 is commonly meant the concentration giving half of the maximal effect. One may read the IC50 as the concentration at which inhibition is half-maximal. The low end stands for greater potency in that assay, the high end for weaker potency in that assay. `CC1(C)CCC(CN2CCN(c3ccc(C(=O)NS(=O)(=O)c4ccc(NCC5CCOCC5)c([N+](=O)[O-])c4)c(Oc4cnc5[nH]ccc5c4)c3)CC2)=C(c2ccc(Cl)cc2)C1` [ABT-199]: the “activity to Mcl-1” value at Mcl-1 is “no activity”. In the data set with CLL [1], the “clinical efficacy for CLL” value is “highly efficacious” and the clinical toxicity entry is given as “lethal tumour lysis syndrome”. Also, the EC50 with CLL [2] was 3 nM. For the same molecule, in the data set with RS4;11 xenografts, the “maximal tumor growth inhibition” value was 95% and the tumor growth delay is on record as 152%. In addition, in the data set on RS4;11 cells, the half-maximal effective concentration (EC50) is 8 nM. The same molecule registered a 50% inhibitory concentration (IC50) with H146 greater than 2000 nM.
